Measured values: patent US8518876B2, “Composition for long-acting peptide analogs” (Pharmaln Corporation, priority 2007, dated 2013)
Where a SMILES comes first, the peptide text is derived from it. Bridges are numbered along the chain shown (N, C = ends). [ ]: non-standard residue; d: D form. The star is where a group is joined. ξ: configuration not given here. Lauroyl = CCCCCCCCCCCC(=O)*; Octanoyl = CCCCCCCC(=O)*; ξLac = CC(O)C(=O)O

Legend:
[1] = tested on: human umbilical chord artery endothelial cells (HUAEC); assay: Ca-influx after vasopressin analog stimulation of HUAEC, samples pre-incubated in human serum; assay type: cell-based; set-up: key to Activity of Various Vasopressin Analogs, 0 h / Activity of Various Vasopressin Analogs, 1 h / Activity of Various Vasopressin Analogs, 2 h / Activity of Various Vasopressin Analogs, 4 h: “−” for no detectable activity; “+” to “+++” for slight to high activity; “+” to “+++” for slight to high activity; “+” to “+++” for slight to high activity; details: for Activity of Various Vasopressin Analogs, 0 h: 0 h pre-incubation in pooled human serum at 37° C. (serum present); for Activity of Various Vasopressin Analogs, 0 h / Activity of Various Vasopressin Analogs, 1 h / Activity of Various Vasopressin Analogs, 2 h / Activity of Various Vasopressin Analogs, 4 h: Ca-influx in HUAEC, 50 nM per well; for Activity of Various Vasopressin Analogs, 1 h: 1 h pre-incubation in pooled human serum at 37° C.; for Activity of Various Vasopressin Analogs, 2 h: 2 h pre-incubation in pooled human serum at 37° C.; for Activity of Various Vasopressin Analogs, 4 h: 4 h pre-incubation in pooled human serum at 37° C.; for course of activity on incubation in human serum: in words
Description: Ca-influx after vasopressin analog stimulation of human umbilical chord artery endothelial cells (HUAEC) was used to test the biological activity of the various vasopressin analogs. The material used were: 75 cm^2 tissue culture flasks, BD Bioscience, Bedford Mass. (catalogue number 137787) with 0.2 μm vented blue plug seal caps (catalogue number 353136); human umbilical artery endothelial cells (HUAEC), Lonza, Walkersville, Md. (catalogue number CC-2520); EGM-2 fully supplement medium, Lonza, Walkersville, Md. (catalogue number CC-3162); Fura-2 AM, Invitrogen/Molecular Probes, Carlsbad, Calif. (catalogue number F-1221) (Fura-2 AM is a high affinity, intracellular calcium indicator that is ratiometric and UV light-excitable; the acetoxymethyl (AM) ester form is useful for noninvasive intracellular loading as it is cell permeable. Once inside the cell the ester is clipped which renders the Fura-2 molecule cell impermeable and therefore trapped inside.); terlipressin derivatives custom made by Anaspec, San Jose Calif., according to inventors specifications; pooled human serum, Sigma, St. Louis, Mo. (catalogue number H4522); phosphate buffered saline (PBS), Fisher Scientific, Fair Lawn, N.J. (catalogue number BP399-500); trypsin-EDTA solution, 0.25%, Invitrogen/Gibco, Carlsbad, Calif. (catalogue number 25200-072); heat inactivated fetal bovine serum (FBS), Invitrogen/Gibco, Carlsbad, Calif. (catalogue number 10438-026); black polystyrene 96 well flat-bottom assay plates, Corning Inc., Corning, N.Y. (catalogue number 3916); Chameleon plate multilabel detection reader, Hidex, Turku, Finland, distributed by Bioscan, Washington, D.C.; dimethyl sulfoxide (DMSO), Fisher Scientific, Fair Lawn, N.J. (catalogue number D-136-1).
The methods used for tissue or cell culture are as follows: a vial of HUAEC (>0.5×10^6 cells) was thawed and seeded in two 75 cm^2 flasks with 15 ml EGM-2 medium each. Cells were grown over night and medium was changed. Media in the flasks were changed on a Monday, Wednesday, Friday schedule. Cells were split at approximately 80% confluency (using trypsin). Media were removed and the flasks were washed with 10 ml 1×PBS. The PBS was removed, 1.5 ml trypsin-EDTA solution was added and incubated for 5 min at 37° C. Three ml of FBS added and the cells were counted. The cells were centrifuged at 200×G for 5 min, resuspended in EGM-2 medium and distributed into new 75 cm2 flasks @ 3000-5000 cells per cm2.
To prepare for the Ca2+-influx assay, cells were distributed into one black 96 well plate @ 10^5 cells/well. Cells were allowed to adhere overnight and the medium was then removed. Fifty μg Fura-2 was dissolved in 50 μl DMSO and added to 10 ml PBS/2% FBS. The cells were stained with 20 μl of 5 μg/ml Fura-2 in PBS/2% FBS for 2 h, then 180 μl EGM-2 medium supplemented with CaCl2 and glucose was added (10 mM CaCl2 and 11.1 mM glucose final concentrations).
To prepare analogs for testing, 50 uM terlipressin (or derivative) stock solution in DMSO was prepared. […] (placed on ice after incubation).
To measure Ca-influx, Fura-2 fluorescence was measured for 4 repetitions per well at 340 nm ex/510 nm em and 420 nm ex/510 nm em (4 measurement before and 16 after injection of drug. At t=12 sec, 20 μl of terlipressin or derivative was injected as a 500 nM solution (or serum) for a final concentration of 50 nM per well. Fura-2 fluorescence was measured for […] per well at 340 nm ex/510 nm em and 420 nm ex/510 nm em (4 measurements before and 16 after injection of drug). The controls included injected human serum alone, and terlipressin or derivative dissolved in PBS as […]. All measurements were done in hexuplicate.
Data analysis was done using Graphpad Prism version 5.0 software (Graphpad software Inc, San Diego, Calif.). […]

[2] = Solubility in water of the synthesized peptide; assay type: physicochemical; details: in words
rat ear model = assay: Rat ear model, maintenance of vasoconstriction (paleness of ears) after subcutaneous injection; assay type: in vivo; details: for loss of paleness after: subcutaneous injection, ears examined after 6 and 24 h
Description: Using a rat ear model, a vasopressin analog with metal binding moiety of the present invention, His6Ter (“His6” disclosed as SEQ ID NO: 52), was evaluated for it ability to maintain vasoconstriction for an extended period of time. The analog was formulated at a 2% load in polymeric carrier containing 40PLPEG537-Zn-chelate. The peptide analog-polymeric complex was injected subcutaneously into the back of one set of rats, while terlipressin alone was also injected similarly in another set of rats. The ears were examined at baseline and at intervals up to 48 h.
Using the same model, the effects of delayed release of biologically-active lysine vasopressin from the peptide analog His6Ter (“His6” disclosed as SEQ ID NO: 52), with or without complexing in polymeric carrier, was tested. In the experiment, terlipressin was conjugated with a his tag metal binding moiety to result in the His6Ter peptide analog (“His6” disclosed as SEQ ID NO: 52). A portion of the His6Ter analog (“His6” disclosed as SEQ ID NO: 52) was formulated at 2% loading in 40PLPEG537-Zn-chelate. The three test materials were injected subcutaneously into groups of rats and the ears were examined after 6 and 24 h.

[3] = cited from earlier work

Row | Compound | Activity of Various Vasopressin Analogs, 0 h [1] | Activity of Various Vasopressin Analogs, 1 h [1] | Activity of Various Vasopressin Analogs, 2 h [1] | Activity of Various Vasopressin Analogs, 4 h [1] | solubility in water [2] | other results
1 | CCCCCCCC(=O)NCC(=O)NCC(=O)NCC(=O)N[C@H]1CSSC[C@@H](C(=O)N2CCC[C@H]2C(=O)N[C@@H](CCCCN)C(=O)NCC(N)=O)NC(=O)[C@H](CC(N)=O)NC(=O)[C@H](CCC(N)=O)NC(=O)[C@H](Cc2ccccc2)NC(=O)[C@H](Cc2ccc(O)cc2)NC1=O [C8TerA, CH3(CH2)6CO-Gly-Gly-Gly-Cys-Tyr-Phe-Gln-Asn-Cys-Pro-Lys-Gly-NH2] (Octanoyl-GGGCYFQNCPKG-NH2; disulfide 4-9) | +++ | +++ | +++ | +++ | water soluble | 
2 | CCCCCCCC(=O)OC(C)C(=O)NCC(=O)NCC(=O)NCC(=O)N[C@H]1CSSC[C@@H](C(=O)N2CCC[C@H]2C(=O)N[C@@H](CCCCN)C(=O)NCC(N)=O)NC(=O)[C@H](CC(N)=O)NC(=O)[C@H](CCC(N)=O)NC(=O)[C@H](Cc2ccccc2)NC(=O)[C@H](Cc2ccc(O)cc2)NC1=O (stereo partly drawn) [C8TerE, CH3(CH2)6CO—OHC(CH3)CO-Gly-Gly-Gly-Cys-Tyr-Phe-Gln-Asn-Cys-Pro-Lys-Gly-NH2] (Octanoyl-[ξLac]GGGCYFQNCPKG-NH2; disulfide 5-10) |  |  |  |  | water soluble | 
3 | CCCCCCCCCCCC(=O)OC(C)C(=O)NCC(=O)NCC(=O)NCC(=O)N[C@H]1CSSC[C@@H](C(=O)N2CCC[C@H]2C(=O)N[C@@H](CCCCN)C(=O)NCC(N)=O)NC(=O)[C@H](CC(N)=O)NC(=O)[C@H](CCC(N)=O)NC(=O)[C@H](Cc2ccccc2)NC(=O)[C@H](Cc2ccc(O)cc2)NC1=O (stereo partly drawn) [C12TerE, CH3(CH2)10CO—OHC(CH3)CO-Gly-Gly-Gly-Cys-Tyr-Phe-Gln-Asn-Cys-Pro-Lys-Gly-NH2] (Lauroyl-[ξLac]GGGCYFQNCPKG-NH2; disulfide 5-10) | +++ | + | − | − | limited solubility in water | 
4 | NCCCC[C@H](NC(=O)[C@@H]1CCCN1C(=O)[C@@H]1CSSC[C@H](NC(=O)CNC(=O)CNC(=O)CNC(=O)[C@H](Cc2c[nH]cn2)NC(=O)[C@H](Cc2c[nH]cn2)NC(=O)[C@@H](N)Cc2c[nH]cn2)C(=O)N[C@@H](Cc2ccc(O)cc2)C(=O)N[C@@H](Cc2ccccc2)C(=O)N[C@@H](CCC(N)=O)C(=O)N[C@@H](CC(N)=O)C(=O)N1)C(=O)NCC(N)=O [His3Ter, His-His-His-Gly-Gly-Gly-Cys-Tyr-Phe-Gln-Asn-Cys-Pro-Lys-Gly-NH2] (H-HHHGGGCYFQNCPKG-NH2; disulfide 7-12) |  |  |  |  | water soluble | 
5 | N=C(N)NCCC[C@H](NC(=O)[C@@H]1CCCN1C(=O)[C@@H]1CSSC[C@H](NC(=O)CNC(=O)CNC(=O)CNC(=O)[C@H](Cc2c[nH]cn2)NC(=O)[C@H](Cc2c[nH]cn2)NC(=O)[C@@H](N)Cc2c[nH]cn2)C(=O)N[C@@H](Cc2ccc(O)cc2)C(=O)N[C@@H](Cc2ccccc2)C(=O)N[C@@H](CCC(N)=O)C(=O)N[C@@H](CC(N)=O)C(=O)N1)C(=O)NCC(N)=O [His3Vas, His-His-His-Gly-Gly-Gly-Cys-Tyr-Phe-Gln-Asn-Cys-Pro-Arg-Gly-NH2] (H-HHHGGGCYFQNCPRG-NH2; disulfide 7-12) |  |  |  |  | water soluble | 
6 | NCCCC[C@H](NC(=O)[C@@H]1CCCN1C(=O)[C@@H]1CSSC[C@H](NC(=O)CNC(=O)CNC(=O)CNC(=O)[C@H](Cc2c[nH]cn2)NC(=O)[C@H](Cc2c[nH]cn2)NC(=O)[C@H](Cc2c[nH]cn2)NC(=O)[C@H](Cc2c[nH]cn2)NC(=O)[C@H](Cc2c[nH]cn2)NC(=O)[C@@H](N)Cc2c[nH]cn2)C(=O)N[C@@H](Cc2ccc(O)cc2)C(=O)N[C@@H](Cc2ccccc2)C(=O)N[C@@H](CCC(N)=O)C(=O)N[C@@H](CC(N)=O)C(=O)N1)C(=O)NCC(N)=O [His6Ter, His-His-His-His-His-His-Gly-Gly-Gly-Cys-Tyr-Phe-Gln-Asn-Cys-Pro-Lys-Gly-NH2] (H-HHHHHHGGGCYFQNCPKG-NH2; disulfide 10-15) |  |  |  |  | water soluble | loss of paleness after (rat ear model): 6 h
7 | N=C(N)NCCC[C@H](NC(=O)[C@@H]1CCCN1C(=O)[C@@H]1CSSC[C@H](NC(=O)CNC(=O)CNC(=O)CNC(=O)[C@H](Cc2c[nH]cn2)NC(=O)[C@H](Cc2c[nH]cn2)NC(=O)[C@H](Cc2c[nH]cn2)NC(=O)[C@H](Cc2c[nH]cn2)NC(=O)[C@H](Cc2c[nH]cn2)NC(=O)[C@@H](N)Cc2c[nH]cn2)C(=O)N[C@@H](Cc2ccc(O)cc2)C(=O)N[C@@H](Cc2ccccc2)C(=O)N[C@@H](CCC(N)=O)C(=O)N[C@@H](CC(N)=O)C(=O)N1)C(=O)NCC(N)=O [His6Vas, His-His-His-His-His-His-Gly-Gly-Gly-Cys-Tyr-Phe-Gln-Asn-Cys-Pro-Arg-Gly-NH2] (H-HHHHHHGGGCYFQNCPRG-NH2; disulfide 10-15) |  |  |  |  | water soluble | 
8 | NCCCC[C@H](NC(=O)[C@@H]1CCCN1C(=O)[C@@H]1CSSC[C@H](NC(=O)CNC(=O)CNC(=O)CN)C(=O)N[C@@H](Cc2ccc(O)cc2)C(=O)N[C@@H](Cc2ccccc2)C(=O)N[C@@H](CCC(N)=O)C(=O)N[C@@H](CC(N)=O)C(=O)N1)C(=O)NCC(N)=O [Terlipressin, reference compound] (H-GGGCYFQNCPKG-NH2; disulfide 4-9) | +++ | + | − | − |  | course of activity on incubation in human serum [1]: loses its activity quickly; course of activity on incubation in human serum ([1]; listed as terlipressin): losses activity immediately afterwards; ear colour at 6 h (rat ear model; subcutaneous injection into the back, 6 h): pale; ear colour at 24 h (rat ear model; subcutaneous injection into the back, 24 h): returned to a baseline color; loss of paleness after (rat ear model): 6 h
9 | NC(=O)CC[C@@H]1NC(=O)[C@H](Cc2ccccc2)NC(=O)[C@H](Cc2ccc(O)cc2)NC(=O)[C@@H](N)CSSC[C@@H](C(=O)N2CCC[C@H]2C(=O)N[C@@H](CCCN=C(N)N)C(=O)NCC(N)=O)NC(=O)[C@H](CC(N)=O)NC1=O [vasopressin] |  |  |  |  |  | half-life [3]: 24 min
